Reference: paper PMC10482942, “Novel quinazoline-1,2,3-triazole hybrids with anticancer and MET kinase targeting properties” (Scientific Reports, 2023)

Legend:
[1] = system: AsPC-1 spheroids; assay: Three-dimensional spheroid growth inhibition, APH assay; assay type: cell-based, human; conditions: for Circularity and solidity of spheroids: AsPC-1 spheroids, after 72 h of treatment, ImageJ; for IC50: Homo sapiens, ASPC1, APH assay, 72 h treatment, read-out: IC50 in AsPC-1 three-dimensional spheroid model
Description: Three-dimensional spheroid cell cultures were produced based on the liquid overlay technique. Agarose solution in RPMI (1.5% w/v) was prepared and sterilized in an autoclave. Then, each well of 96-well flat-bottom plates was coated with 50 µl of agarose solution and was left to solidify at room temperature for at least 2 h. One hundred twenty-five µl of a suspension of AsPC-1 cells in RPMI medium containing 10% FBS at a density of 2 × 10^5 cells/ml was added to each well. Afterwards, the plates were centrifuged at 700g for 5 min and incubated under standard culture conditions. After 48 h of incubation, which allowed one spheroid to be formed in each well, 100 µl of the medium was removed, and spheroids were treated with synthesized derivatives diluted in a fresh medium containing 10% FBS for 72 h.
At the final step, cell viability was measured by the acid phosphatase (APH) assay, which is based on the hydrolysis of the p-nitrophenyl phosphate (pNPP) and its conversion to yellow p-nitrophenol by intracellular acid phosphatases present in viable cells. Briefly, 160 µl of the medium was removed and 200 µl of a solution containing 2 mg/ml pNPP dissolved in 0.1 M sodium acetate at pH 4.8 were added to each well and incubated for 120 min at 37 °C. Afterwards, 10 µl of NaOH 1 M was added to each well to stop the reaction, and the absorbance was recorded at 405 nm within 10 min by a Bio-Tek microplate reader (Model Synergy HTX). The images of spheroids were recorded by a bright field microscope (Nikon model DS-Ri2) and analyzed with Nikon NIS-Elements AR imaging software for Windows version 4.30.

[2] = system: MET phosphorylation in AsPC-1 cells; assay: MET phosphorylation by western blot analysis; assay type: cell-based, human; conditions: 10 and 25 μM, 3 h
Description: The effect of synthetic compounds on MET phosphorylation in AsPC-1 cells was investigated by western blot analysis. At first, the AsPC-1 cells were seeded in 6-well plates at a density of 250,000 cells/ml and incubated at 37 °C for 24 h. The cultured cells were then treated with the synthetic compounds at different concentrations for 3 h. Then, the cells were harvested via addition of ice-cold RIPA lysis buffer (20 mM Tris base, 150 mM NaCl, 1% Np40, 1 mM EDTA, […] and 0.1% SDS, pH 8.0) containing […] (PMSF; SigmaAldrich), 10 mM Na4O7P2 and 2 mM Na3VO4 and by use of scrapers. Also, PMSF and a protease inhibitor cocktail (Roche) were added to the extraction buffer to prevent the breakdown of the proteins. […] Protein contents of the cell extracts were measured by a bicinchoninic acid protein assay kit (Quanti-Pro BCA, Sigma–Aldrich, St. Louis, USA) using bovine serum albumin as the protein standard. […] Proteins were then detected by incubation with specific primary antibodies, rabbit monoclonal anti-p-MET (dilution 1:1000, catalogue number: 3126, Cell Signaling, Danvers, MA), and rabbit monoclonal anti-MET (dilution 1:1000, catalogue number: 4560, Cell Signaling, Danvers, MA) overnight at 4 °C. […] The band intensities were calculated with the software Gene Tools (SyneGene, Cambridge, UK) for Windows.

[3] = biological target: T1, ALK (h) (Homo sapiens, UniProt Q9UM73); assay: Radiometric kinase panel assay; assay type: biochemical; conditions: Km ATP
T1 construct: purchased Eurofins Discovery

[4] = biological target: T2, AKT1 (h) (Homo sapiens, UniProt P31749); assay: Radiometric kinase panel assay; assay type: biochemical; conditions: Km ATP
T2 construct: purchased Eurofins Discovery

[5] = biological target: T3, AXL (h) (Homo sapiens, UniProt P30530); assay: Radiometric kinase panel assay; assay type: biochemical; conditions: Km ATP
T3 construct: purchased Eurofins Discovery

[6] = biological target: T4, CDK4/cyclinD3 (h) (Homo sapiens, UniProt P11802); assay: Radiometric kinase panel assay; assay type: biochemical; conditions: Km ATP
T4 construct: purchased Eurofins Discovery

[7] = biological target: T5, EGFR (h) (Homo sapiens, UniProt P00533); assay: Radiometric kinase panel assay; assay type: biochemical; conditions: Km ATP
T5 construct: purchased Eurofins Discovery

[8] = biological target: T6, FLT1 (h) (Homo sapiens, UniProt P17948); assay: Radiometric kinase panel assay; assay type: biochemical; conditions: Km ATP
T6 construct: purchased Eurofins Discovery

[9] = biological target: T7, KIT (h) (Homo sapiens, UniProt P10721); assay: Radiometric kinase panel assay; assay type: biochemical; conditions: Km ATP
T7 construct: purchased Eurofins Discovery

[10] = biological target: T8, MAPK1 (h) (Homo sapiens, UniProt P27361); assay: Radiometric kinase panel assay; assay type: biochemical; conditions: Km ATP
T8 construct: purchased Eurofins Discovery

[11] = biological target: T9, MTOR (h) (Homo sapiens, UniProt P42345); assay: Radiometric kinase panel assay; assay type: biochemical; conditions: Km ATP
T9 construct: purchased Eurofins Discovery

[12] = biological target: T10, PDGFRA (h) (Homo sapiens, UniProt P16234); assay: Radiometric kinase panel assay and dose-response; assay type: biochemical; conditions: for inhibition at 10 µM: radiometric assay, Km ATP
T10 construct: purchased Eurofins Discovery
Description: Moreover, a dose–response analysis was performed at six concentrations to determine the activity of compound 8c against PDGFRA kinase, and IC50 value was estimated by curve fitting. The tests were performed by Eurofins Discovery (https://www.eurofinsdiscovery.com).

[13] = biological target: T11, RET (h) (Homo sapiens, UniProt P07949); assay: Radiometric kinase panel assay; assay type: biochemical; conditions: Km ATP
T11 construct: purchased Eurofins Discovery

[14] = biological target: T12, AKT2 (h) (Homo sapiens, UniProt P31751); assay: Radiometric kinase panel assay; assay type: biochemical; conditions: Km ATP
T12 construct: purchased Eurofins Discovery

[15] = biological target: T13, FMS (h) (Homo sapiens, UniProt P07333); assay: Radiometric kinase panel assay; assay type: biochemical; conditions: Km ATP
T13 construct: purchased Eurofins Discovery

[16] = biological target: T14, MAPK2 (m) (Mus musculus, UniProt P63085); assay: Radiometric kinase panel assay; assay type: biochemical; conditions: Km ATP
T14 construct: purchased Eurofins Discovery

[17] = biological target: T15, PDGFRB (h) (Homo sapiens, UniProt P09619); assay: Radiometric kinase panel assay; assay type: biochemical; conditions: Km ATP
T15 construct: purchased Eurofins Discovery

T10 sequence (P16234 24-1089): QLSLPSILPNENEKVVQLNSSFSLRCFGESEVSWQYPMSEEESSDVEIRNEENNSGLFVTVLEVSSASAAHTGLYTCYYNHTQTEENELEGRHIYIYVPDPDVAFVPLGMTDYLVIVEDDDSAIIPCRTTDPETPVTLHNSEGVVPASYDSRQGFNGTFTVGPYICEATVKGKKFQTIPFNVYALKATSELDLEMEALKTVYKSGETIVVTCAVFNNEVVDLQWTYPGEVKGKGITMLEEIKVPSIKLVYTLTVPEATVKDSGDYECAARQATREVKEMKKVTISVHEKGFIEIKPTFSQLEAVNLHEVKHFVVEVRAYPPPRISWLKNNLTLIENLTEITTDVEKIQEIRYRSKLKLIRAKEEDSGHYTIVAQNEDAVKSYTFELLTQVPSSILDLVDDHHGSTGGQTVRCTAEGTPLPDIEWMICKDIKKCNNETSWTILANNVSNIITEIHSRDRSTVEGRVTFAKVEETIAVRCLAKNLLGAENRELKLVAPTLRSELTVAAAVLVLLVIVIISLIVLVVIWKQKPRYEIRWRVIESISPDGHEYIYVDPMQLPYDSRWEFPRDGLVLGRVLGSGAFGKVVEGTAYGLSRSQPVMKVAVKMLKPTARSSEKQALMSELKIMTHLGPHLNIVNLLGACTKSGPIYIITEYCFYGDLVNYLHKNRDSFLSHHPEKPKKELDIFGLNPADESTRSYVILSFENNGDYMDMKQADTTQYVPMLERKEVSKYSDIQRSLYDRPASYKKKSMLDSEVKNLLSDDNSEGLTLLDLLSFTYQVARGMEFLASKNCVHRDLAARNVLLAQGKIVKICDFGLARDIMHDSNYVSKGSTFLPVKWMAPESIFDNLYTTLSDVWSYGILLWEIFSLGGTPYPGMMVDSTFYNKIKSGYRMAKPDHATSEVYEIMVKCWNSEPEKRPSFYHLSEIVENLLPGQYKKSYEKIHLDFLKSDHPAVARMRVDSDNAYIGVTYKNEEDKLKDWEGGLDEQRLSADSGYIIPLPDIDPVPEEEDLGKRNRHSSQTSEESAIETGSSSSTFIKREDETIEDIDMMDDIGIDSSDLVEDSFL
T2 sequence (P31749 whole entry): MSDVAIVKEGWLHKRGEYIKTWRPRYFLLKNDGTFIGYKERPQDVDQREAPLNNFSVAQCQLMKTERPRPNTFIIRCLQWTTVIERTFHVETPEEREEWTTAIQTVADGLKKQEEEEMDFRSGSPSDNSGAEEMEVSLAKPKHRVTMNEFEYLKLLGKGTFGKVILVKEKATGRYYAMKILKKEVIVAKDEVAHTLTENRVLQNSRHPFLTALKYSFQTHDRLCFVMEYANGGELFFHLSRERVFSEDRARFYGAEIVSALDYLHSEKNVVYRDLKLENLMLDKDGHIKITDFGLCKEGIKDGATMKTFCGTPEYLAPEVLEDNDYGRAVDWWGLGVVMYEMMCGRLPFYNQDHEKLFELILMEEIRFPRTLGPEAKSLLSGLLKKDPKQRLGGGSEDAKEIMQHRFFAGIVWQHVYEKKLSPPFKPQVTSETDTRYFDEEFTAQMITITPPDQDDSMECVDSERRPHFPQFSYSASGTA
T7 sequence (P10721 26-976): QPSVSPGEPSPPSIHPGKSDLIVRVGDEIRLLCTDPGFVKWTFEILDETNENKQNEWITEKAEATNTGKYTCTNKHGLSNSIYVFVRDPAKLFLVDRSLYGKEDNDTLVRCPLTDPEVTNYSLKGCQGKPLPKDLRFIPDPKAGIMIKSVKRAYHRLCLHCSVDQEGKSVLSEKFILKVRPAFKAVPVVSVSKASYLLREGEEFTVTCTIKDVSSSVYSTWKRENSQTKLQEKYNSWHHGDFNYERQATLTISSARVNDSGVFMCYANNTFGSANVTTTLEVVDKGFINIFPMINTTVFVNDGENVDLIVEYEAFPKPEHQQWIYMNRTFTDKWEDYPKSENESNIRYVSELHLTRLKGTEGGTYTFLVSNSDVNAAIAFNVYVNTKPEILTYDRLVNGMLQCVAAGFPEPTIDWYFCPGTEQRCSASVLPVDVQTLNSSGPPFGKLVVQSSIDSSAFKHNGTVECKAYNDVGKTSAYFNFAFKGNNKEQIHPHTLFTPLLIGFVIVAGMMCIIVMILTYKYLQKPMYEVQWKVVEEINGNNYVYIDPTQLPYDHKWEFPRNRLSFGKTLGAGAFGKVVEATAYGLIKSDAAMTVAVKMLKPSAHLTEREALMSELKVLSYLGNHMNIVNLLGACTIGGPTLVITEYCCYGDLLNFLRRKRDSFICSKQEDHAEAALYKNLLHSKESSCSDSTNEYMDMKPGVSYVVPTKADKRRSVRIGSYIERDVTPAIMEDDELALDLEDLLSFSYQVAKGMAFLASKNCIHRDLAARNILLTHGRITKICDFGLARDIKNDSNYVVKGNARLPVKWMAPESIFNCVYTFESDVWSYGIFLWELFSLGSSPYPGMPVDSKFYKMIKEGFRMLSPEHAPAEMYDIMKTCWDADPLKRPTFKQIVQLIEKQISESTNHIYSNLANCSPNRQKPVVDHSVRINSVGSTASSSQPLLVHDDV
T1 sequence (Q9UM73 19-1620): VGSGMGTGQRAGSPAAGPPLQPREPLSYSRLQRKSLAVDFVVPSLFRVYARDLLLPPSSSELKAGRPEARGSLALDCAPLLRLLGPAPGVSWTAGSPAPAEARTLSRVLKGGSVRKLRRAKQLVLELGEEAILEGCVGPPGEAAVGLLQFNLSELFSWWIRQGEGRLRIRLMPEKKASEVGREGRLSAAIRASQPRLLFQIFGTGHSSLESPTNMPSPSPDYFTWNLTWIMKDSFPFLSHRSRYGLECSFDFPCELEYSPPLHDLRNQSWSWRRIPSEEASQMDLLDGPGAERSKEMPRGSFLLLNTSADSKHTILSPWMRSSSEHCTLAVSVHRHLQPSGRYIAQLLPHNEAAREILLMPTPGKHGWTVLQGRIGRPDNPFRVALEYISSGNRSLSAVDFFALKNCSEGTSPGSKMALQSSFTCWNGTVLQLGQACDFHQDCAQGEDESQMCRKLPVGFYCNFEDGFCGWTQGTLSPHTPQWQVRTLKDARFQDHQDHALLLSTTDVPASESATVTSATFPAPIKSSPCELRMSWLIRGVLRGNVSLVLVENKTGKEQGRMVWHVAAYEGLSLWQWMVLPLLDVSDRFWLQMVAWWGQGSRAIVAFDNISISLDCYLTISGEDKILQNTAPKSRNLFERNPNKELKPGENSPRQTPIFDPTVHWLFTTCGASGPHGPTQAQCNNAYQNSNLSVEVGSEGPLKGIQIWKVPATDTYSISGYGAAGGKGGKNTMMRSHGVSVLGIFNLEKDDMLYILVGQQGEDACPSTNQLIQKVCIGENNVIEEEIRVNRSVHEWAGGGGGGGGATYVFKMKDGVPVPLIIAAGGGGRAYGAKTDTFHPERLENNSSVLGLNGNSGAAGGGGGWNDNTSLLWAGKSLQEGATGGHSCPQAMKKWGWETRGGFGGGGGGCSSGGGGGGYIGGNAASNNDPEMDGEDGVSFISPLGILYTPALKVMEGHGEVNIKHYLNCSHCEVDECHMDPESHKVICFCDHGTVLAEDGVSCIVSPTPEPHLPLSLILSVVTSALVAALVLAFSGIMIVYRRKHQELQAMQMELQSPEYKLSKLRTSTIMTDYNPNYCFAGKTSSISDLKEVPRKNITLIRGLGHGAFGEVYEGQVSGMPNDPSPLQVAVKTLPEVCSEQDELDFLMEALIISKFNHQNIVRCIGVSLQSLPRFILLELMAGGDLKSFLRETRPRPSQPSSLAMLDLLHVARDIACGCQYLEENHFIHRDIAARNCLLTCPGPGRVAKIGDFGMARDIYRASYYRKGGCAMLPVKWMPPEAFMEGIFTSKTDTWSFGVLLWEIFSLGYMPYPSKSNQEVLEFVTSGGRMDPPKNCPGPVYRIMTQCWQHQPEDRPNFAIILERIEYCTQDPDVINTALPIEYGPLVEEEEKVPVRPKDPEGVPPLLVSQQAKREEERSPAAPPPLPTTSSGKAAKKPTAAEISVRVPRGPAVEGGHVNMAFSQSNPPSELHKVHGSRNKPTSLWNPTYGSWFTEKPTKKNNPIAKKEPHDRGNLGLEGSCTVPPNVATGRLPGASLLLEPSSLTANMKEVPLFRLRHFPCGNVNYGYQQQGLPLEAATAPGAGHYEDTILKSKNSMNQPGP
T4 sequence (P11802 whole entry): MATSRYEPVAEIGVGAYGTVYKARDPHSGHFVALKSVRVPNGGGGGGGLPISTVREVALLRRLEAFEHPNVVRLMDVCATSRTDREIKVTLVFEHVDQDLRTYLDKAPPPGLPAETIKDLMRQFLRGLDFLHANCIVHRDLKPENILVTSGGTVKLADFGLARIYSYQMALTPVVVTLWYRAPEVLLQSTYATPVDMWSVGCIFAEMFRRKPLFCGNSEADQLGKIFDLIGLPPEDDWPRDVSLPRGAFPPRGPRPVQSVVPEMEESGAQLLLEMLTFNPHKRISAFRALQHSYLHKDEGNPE
T4 sequence (P30281 whole entry partner): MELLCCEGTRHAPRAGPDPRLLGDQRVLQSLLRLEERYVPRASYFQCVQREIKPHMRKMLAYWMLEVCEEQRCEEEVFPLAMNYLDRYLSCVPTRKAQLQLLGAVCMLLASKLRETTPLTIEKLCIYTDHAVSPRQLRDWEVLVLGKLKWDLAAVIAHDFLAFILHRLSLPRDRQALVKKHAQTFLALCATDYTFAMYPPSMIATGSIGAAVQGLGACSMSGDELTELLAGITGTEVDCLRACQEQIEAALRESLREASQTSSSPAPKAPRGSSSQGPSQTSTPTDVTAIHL
T8 sequence (P27361 whole entry): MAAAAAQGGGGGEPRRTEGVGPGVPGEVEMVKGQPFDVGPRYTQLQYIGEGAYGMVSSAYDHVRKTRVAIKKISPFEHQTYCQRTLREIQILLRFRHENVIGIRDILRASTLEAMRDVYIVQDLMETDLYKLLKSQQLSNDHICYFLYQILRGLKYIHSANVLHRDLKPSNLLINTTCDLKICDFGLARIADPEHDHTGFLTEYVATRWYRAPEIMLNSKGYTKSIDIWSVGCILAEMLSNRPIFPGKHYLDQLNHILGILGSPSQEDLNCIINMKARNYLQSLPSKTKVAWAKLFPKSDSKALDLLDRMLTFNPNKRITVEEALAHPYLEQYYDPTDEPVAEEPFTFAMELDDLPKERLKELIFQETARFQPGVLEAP

IC50 [1] [µM]	inhibition at 10 µM [3] [%]	inhibition at 10 µM [4] [%]	inhibition at 10 µM [5] [%]	inhibition at 10 µM [6] [%]	inhibition at 10 µM [7] [%]	inhibition at 10 µM [8] [%]	inhibition at 10 µM [9] [%]	inhibition at 10 µM [10] [%]	inhibition at 10 µM [11] [%]	inhibition at 10 µM [12] [%]	IC50 ([12]; dose-response at six concentrations, curve fitting, read-out: PDGFRA kinase inhibition IC50) [µM]	inhibition at 10 µM [13] [%]	inhibition at 10 µM [14] [%]	inhibition at 10 µM [15] [%]	inhibition at 10 µM [16] [%]	inhibition at 10 µM [17] [%]	melting point [°C]	Compound	Circularity and solidity of spheroids [1]	Effect on MET phosphorylation [2]
32.7 ± 7.2	3	15	12	2	8	2	7	5	3	58	7.1	10						Cc1ccc(Cn2cc(COc3ccc(C=NNc4ncnc5ccccc45)cc3)nn2)cc1 [Compound 8c, 2-(4-((1-(4-Methylbenzyl)-1H-1,2,3-triazol-4-yl)methoxy)benzylidene)-1-(quinazolin-4-yl)hydrazine]	significant reduction	significant suppression of MET phosphorylation
36.6 ± 4.5	14	26					2			46			18	0	7	7	205.4	CC(C)(C)c1ccc(Cn2cc(COc3ccc(C=NNc4ncnc5ccccc45)cc3)nn2)cc1 [Compound 8h, 2-(4-((1-(4-Tert-butylbenzyl)-1H-1,2,3-triazol-4-yl)methoxy)benzylidene)-1-(quinazolin-4-yl)hydrazine]	significant reduction	
